Measurements reported in PubChem BioAssay AID220 (DTP/NCI, 2004).
Several values for one entry are separate records, joined by “and”; a condition that tells them apart may be missing. Identical values can stand only once. Inconclusive results are not listed.

System: CD8F1 mice, subcutaneous mammary adenocarcinoma, T/C%
Assay: NCI In Vivo Anticancer Drug Screen. Data for tumor model Mammary Adenocarcinoma CD8F1 (subcutaneous) in CD8F1
Details: higher = larger tumour
How it was run: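 Antitumor activity is assessed in transplantable-tumor mice by comparing the treated group with a vehicle-treated control group. Survival or tumor size serves as the measure, reported as T divided by C.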

[1] = endpoint: median tumor weight (est.), dose: 12.5 mg/kg/injection, schedule: Q07DX005 (ip), vehicle: Klucel (hydroxypropylcellulose) (HPC)
[2] = endpoint: median tumor weight (est.), dose: 25.0 mg/kg/injection, schedule: Q07DX005 (ip), vehicle: Klucel (hydroxypropylcellulose) (HPC)
[3] = endpoint: median tumor weight (est.), dose: 50.0 mg/kg/injection, schedule: Q07DX005 (ip), vehicle: Klucel (hydroxypropylcellulose) (HPC)
[4] = endpoint: median tumor weight (est.), dose: 200.0 mg/kg/injection, schedule: Q07DX005 (ip), vehicle: Klucel (hydroxypropylcellulose) (HPC)
[5] = endpoint: median tumor weight change, dose: 125.0 mg/kg/injection, schedule: Q01DX001 (ip), vehicle: saline with Tween-80
[6] = endpoint: median tumor weight change, dose: 250.0 mg/kg/injection, schedule: Q01DX001 (ip), vehicle: saline with Tween-80
[7] = endpoint: median tumor weight change, dose: 500.0 mg/kg/injection, schedule: Q01DX001 (ip), vehicle: saline with Tween-80
[8] = endpoint: median tumor weight (est.), dose: 0.25 mg/kg/injection, schedule: Q07DX005 (ip), vehicle: saline
[9] = endpoint: median tumor weight (est.), dose: 0.5 mg/kg/injection, schedule: Q07DX005 (ip), vehicle: saline
[10] = endpoint: median tumor weight (est.), dose: 1.0 mg/kg/injection, schedule: Q07DX005 (ip), vehicle: saline

Structure (SMILES): CC(CN1CC(=O)NC(=O)C1)N1CC(=O)NC(=O)C1 (centres undefined)
- T/C [1]: 59 % of control
- T/C [2]: 84 % of control
- T/C [3]: 41 % of control
- T/C [4]: 21 % of control and 29 % of control
- T/C (endpoint: median tumor weight (est.), dose: 400.0 mg/kg/injection, schedule: Q07DX005 (ip), vehicle: Klucel (hydroxypropylcellulose) (HPC)): 5 % of control and 11 % of control

Structure (SMILES): O=C1c2ccccc2C(=O)c2c3c(cc(NCCNCCO)c21)N(CCO)CCN3
- T/C [5]: 97 % of control
- T/C [6]: 91 % of control
- T/C [7]: 77 % of control

Structure (SMILES): COc1cc(C(=O)N/N=C/c2cccc([N+](=O)[O-])c2)cc(OC)c1OC
- T/C [5]: 94 % of control
- T/C [6]: 60 % of control
- T/C [7]: 108 % of control
- T/C (endpoint: median tumor weight change, dose: 1000.0 mg/kg/injection, schedule: Q01DX001 (ip), vehicle: saline with Tween-80): 115 % of control
- T/C (endpoint: median tumor weight change, dose: 2000.0 mg/kg/injection, schedule: Q01DX001 (ip), vehicle: saline with Tween-80): 119 % of control

Structure (SMILES): CCCCCCCCCCCCCCCC(=O)O[C@@]12C[C@@H](C)[C@@]3(O)[C@@H](C=C(CO)C[C@]4(O)C(=O)C(C)=C[C@@H]34)[C@@H]1C2(C)C
- T/C (endpoint: median tumor weight (est.), dose: 0.06 mg/kg/injection, schedule: Q07DX005 (ip), vehicle: saline): 84 % of control
- T/C (endpoint: median tumor weight (est.), dose: 0.12 mg/kg/injection, schedule: Q07DX005 (ip), vehicle: saline): 68 % of control
- T/C [8]: 62 % of control
- T/C [9]: 97 % of control
- T/C [10]: 68 % of control

Structure (SMILES): COC(=O)C[C@](O)(CCCC(C)(C)O)C(=O)O[C@@H]1C(OC)=C[C@]23CCCN2CCc2cc4c(cc2[C@H]13)OCO4
- T/C [8]: 59 % of control
- T/C [9]: 57 % of control and 60 % of control
- T/C [10]: 61 % of control and 78 % of control
- T/C (endpoint: median tumor weight (est.), dose: 2.0 mg/kg/injection, schedule: Q07DX005 (ip), vehicle: saline): 14 % of control and 21 % of control
- T/C (endpoint: median tumor weight (est.), dose: 4.0 mg/kg/injection, schedule: Q07DX005 (ip), vehicle: saline): 7 % of control

Structure (SMILES): COc1ccc2c(NCCCCCCNc3c4ccccc4nc4cc(OC)ccc34)c3ccccc3nc2c1
- T/C (endpoint: median tumor weight (est.), dose: 1.25 mg/kg/injection, schedule: Q07DX005 (ip), vehicle: lactic acid): 77 % of control
- T/C (endpoint: median tumor weight (est.), dose: 2.5 mg/kg/injection, schedule: Q07DX005 (ip), vehicle: lactic acid): 175 % of control
- T/C (endpoint: median tumor weight (est.), dose: 5.0 mg/kg/injection, schedule: Q07DX005 (ip), vehicle: lactic acid): 52 % of control

Structure (SMILES): [I][Hg][CH2]C1OCCOC1[CH2][Hg][I] (centres undefined)
- T/C [1]: 96 % of control
- T/C [2]: 100 % of control
- T/C [3]: 85 % of control
- T/C (endpoint: median tumor weight (est.), dose: 100.0 mg/kg/injection, schedule: Q07DX005 (ip), vehicle: Klucel (hydroxypropylcellulose) (HPC)): 76 % of control
- T/C [4]: 52 % of control

Structure (SMILES): Nc1nc(Br)nc2c1ncn2C1CC(O)C(CO)O1 (centres undefined)
- T/C (endpoint: median tumor weight change, dose: 7.5 mg/kg/injection, schedule: Q03HX009 (ip), vehicle: saline): 112 % of control
- T/C (endpoint: median tumor weight change, dose: 15.0 mg/kg/injection, schedule: Q03HX009 (ip), vehicle: saline): 99 % of control
- T/C (endpoint: median tumor weight change, dose: 30.0 mg/kg/injection, schedule: Q03HX009 (ip), vehicle: saline): 51 % of control
- T/C (endpoint: median tumor weight change, dose: 60.0 mg/kg/injection, schedule: Q03HX009 (ip), vehicle: saline): 54 % of control
- T/C (endpoint: median tumor weight change, dose: 120.0 mg/kg/injection, schedule: Q03HX009 (ip), vehicle: saline): 31 % of control

Structure (SMILES): O=S1(=O)C=C(c2ccccc2)C(c2ccccc2)=C1
- T/C (endpoint: median tumor weight (est.), dose: 6.25 mg/kg/injection, schedule: Q07DX005 (ip), vehicle: saline with Tween-80): 80 % of control
- T/C (endpoint: median tumor weight (est.), dose: 25.0 mg/kg/injection, schedule: Q07DX005 (ip), vehicle: saline with Tween-80): 72 % of control
- T/C (endpoint: median tumor weight (est.), dose: 50.0 mg/kg/injection, schedule: Q07DX005 (ip), vehicle: saline with Tween-80): 108 % of control
